Reference: US9708316B2 (BRISTOL-MYERS SQUIBB COMPANY, priority 2014, dated 2017)

Tests used:
[1] = target: T1, HIS-TGFβR1 T204D (Homo sapiens, UniProt P36897, T204D); test: HTRF probe-displacement assay, HIS-TGFβR1 T204D; format: binding; settings: read-out: TGFβR1 (μM) IC50
T1 sequence (P36897 34-503 T204D): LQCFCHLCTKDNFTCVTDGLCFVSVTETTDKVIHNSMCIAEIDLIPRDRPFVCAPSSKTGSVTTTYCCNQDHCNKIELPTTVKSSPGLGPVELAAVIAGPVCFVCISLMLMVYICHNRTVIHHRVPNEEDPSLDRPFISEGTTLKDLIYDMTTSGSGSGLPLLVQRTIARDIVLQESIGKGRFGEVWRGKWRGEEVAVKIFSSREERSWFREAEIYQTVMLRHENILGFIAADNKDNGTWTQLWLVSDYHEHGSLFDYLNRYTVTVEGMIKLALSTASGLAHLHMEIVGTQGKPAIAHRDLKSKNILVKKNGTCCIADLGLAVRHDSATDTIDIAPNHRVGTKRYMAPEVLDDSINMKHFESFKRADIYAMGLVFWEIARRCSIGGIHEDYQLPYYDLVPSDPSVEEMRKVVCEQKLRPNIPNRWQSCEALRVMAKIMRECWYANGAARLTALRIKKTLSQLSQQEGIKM

[2] = target: HIS-TGFβR2 WT (Homo sapiens, UniProt P37173); test: HTRF probe-displacement assay, HIS-TGFβR2 WT; format: binding
HIS-TGFβR2 WT, sequence (P37173 23-567): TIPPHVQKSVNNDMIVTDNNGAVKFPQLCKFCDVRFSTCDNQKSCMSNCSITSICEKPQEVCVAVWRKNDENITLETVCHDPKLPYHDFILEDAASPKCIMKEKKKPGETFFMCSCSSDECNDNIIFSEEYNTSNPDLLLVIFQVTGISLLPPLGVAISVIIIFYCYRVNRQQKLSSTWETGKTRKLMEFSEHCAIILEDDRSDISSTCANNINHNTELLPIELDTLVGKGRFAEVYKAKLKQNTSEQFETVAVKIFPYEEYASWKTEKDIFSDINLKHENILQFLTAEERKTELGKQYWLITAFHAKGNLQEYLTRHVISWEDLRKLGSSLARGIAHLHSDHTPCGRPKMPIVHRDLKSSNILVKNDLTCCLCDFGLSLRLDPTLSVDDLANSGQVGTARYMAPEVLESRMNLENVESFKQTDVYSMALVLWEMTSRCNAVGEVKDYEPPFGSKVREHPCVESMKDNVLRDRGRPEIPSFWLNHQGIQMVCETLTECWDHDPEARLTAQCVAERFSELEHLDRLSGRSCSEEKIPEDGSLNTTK

Compound	IC50 [1] [µM]	IC50 [2] [µM]
O=C(CN1CCOCC1)Nc1cc(-c2[nH]c3cc(Cl)cnc3c2-c2ccc(F)cn2)ccn1 [Example 74, N-{4-[6-Chloro-3-(5-fluoropyridin-2-yl)-1H-pyrrolo[3,2-b]pyridin-2-yl]pyridin-2-yl}-2-(morpholin-4-yl)acetamide]	0.001	2.6
COc1ccc(-c2c(-c3ccnc(NC(=O)CN4CCN(C)CC4)c3)[nH]c3cccnc23)cn1 [Example 287, N-(4-(3-(6-Methoxypyridin-3-yl)-1H-pyrrolo[3,2-b]pyridin-2-yl)pyridin-2-yl)-2-(4-methylpiperazin-1-yl)acetamide]	0.001	0.668
CC(=O)Nc1cc(-c2[nH]c3cccnc3c2-c2nc(C#N)cs2)ccn1 [Example 203, N-(4-(3-(4-Cyanothiazol-2-yl)-1H-pyrrolo[3,2-b]pyridin-2-yl)pyridin-2-yl)acetamide]	0.774	> 15
CC(=O)Nc1cc(-c2[nH]c3c(CO)ccnc3c2-c2cccc(F)n2)ccn1 [Example 275, N-(4-(3-(6-Fluoropyridin-2-yl)-7-(hydroxymethyl)-1H-pyrrolo[3,2-b]pyridin-2-yl)pyridin-2-yl)acetamide]	0.003	0.637
O=C(CNCCN1CCOCC1)Nc1cc(-c2[nH]c3cc(Cl)cnc3c2-c2ccc(F)cn2)ccn1 [Example 241, N-{4-[6-Chloro-3-(5-fluoropyridin-2-yl)-1H-pyrrolo[3,2-b]pyridin-2-yl]pyridin-2-yl}-2-{[2-(morpholin-4-yl)ethyl]amino}acetamide]	0.004	3.67
CC(=O)Nc1cc(-c2[nH]c3cccnc3c2-c2cccc(Cl)n2)ccn1 [Example 3, N-{4-[3-(6-Chloropyridin-2-yl)-1H-pyrrolo[3,2-b]pyridin-2-yl]pyridin-2-yl}acetamide]	0.001	0.089
COc1ccc(-c2c(-c3ccnc(NC(C)=O)c3)n(C)c3cccnc23)cn1 [Example 54, N-{4-[3-(6-Methoxypyridin-3-yl)-1-methyl-1H-pyrrolo[3,2-b]pyridin-2-yl]pyridin-2-yl}acetamide]	0.021	3.61
CC(=O)Nc1cc(-c2[nH]c3cccnc3c2-c2nc(C)cs2)ccn1 [Example 199, N-(4-(3-(4-Methylthiazol-2-yl)-1H-pyrrolo[3,2-b]pyridin-2-yl)pyridin-2-yl)acetamide]	0.0006	0.041
COc1cnc2c(-c3cccc(Cl)n3)c(-c3ccnc(NC(C)=O)c3)[nH]c2c1 [Example 48, N-{4-[3-(6-Chloropyridin-2-yl)-6-methoxy-1H-pyrrolo[3,2-b]pyridin-2-yl]pyridin-2-yl}acetamide]	0.001	0.076
CC(=O)Nc1cc(-c2[nH]c3cc(Cl)cnc3c2-c2cc(C)c(F)cn2)ccn1 [Example 44, N-{4-[6-Chloro-3-(5-fluoro-4-methylpyridin-2-yl)-1H-pyrrolo[3,2-b]pyridin-2-yl]pyridin-2-yl}acetamide]	0.027	0.34
CCc1ccnc(-c2c(-c3ccnc(NC(C)=O)c3)[nH]c3cccnc23)c1 [Example 29, N-{4-[3-(4-Ethylpyridin-2-yl)-1H-pyrrolo[3,2-b]pyridin-2-yl]pyridin-2-yl}acetamide]	0.017	> 15
COc1cnc(-c2c(-c3ccnc(NC(C)=O)c3)[nH]c3cccnc23)cn1 [Example 194, N-(4-(3-(5-Methoxypyrazin-2-yl)-1H-pyrrolo[3,2-b]pyridin-2-yl)pyridin-2-yl)acetamide]	0.005	4.31
CC(=O)Nc1cc(-c2[nH]c3cccnc3c2-c2ccc(C#N)nc2)ccn1 [Example 12, N-{4-[3-(6-Cyanopyridin-3-yl)-1H-pyrrolo[3,2-b]pyridin-2-yl]pyridin-2-yl}acetamide]	0.058	1.31
COC(=O)c1ccnc2c(-c3ccc(F)cn3)c(-c3ccnc(NC(C)=O)c3)[nH]c12 [Example 71, Methyl 2-(2-acetamidopyridin-4-yl)-3-(5-fluoropyridin-2-yl)-1H-pyrrolo[3,2-b]pyridine-7-carboxylate]	0.27	4.38
COc1ccc(-c2c(-c3ccnc(NC(=O)CN4CCN(CCO)CC4)c3)[nH]c3cccnc23)cn1 [Example 288, 2-(4-(2-Hydroxyethyl)piperazin-1-yl)-N-(4-(3-(6-methoxypyridin-3-yl)-1H-pyrrolo[3,2-b]pyridin-2-yl)pyridin-2-yl)acetamide]	0.002	0.487
CC(=O)Nc1cc(-c2[nH]c3cccnc3c2-c2ccc(C(F)F)cn2)ccn1 [Example 108, N-(4-(3-(5-(Difluoromethyl)pyridin-2-yl)-1H-pyrrolo[3,2-b]pyridin-2-yl)pyridin-2-yl)acetamide]	0.145	> 15
COc1ccc(-c2c(-c3ccnc(NC(C)=O)c3)[nH]c3cccnc23)nn1 [Example 198, N-(4-(3-(6-Methoxypyridazin-3-yl)-1H-pyrrolo[3,2-b]pyridin-2-yl)pyridin-2-yl)acetamide]	0.0011	1.48

Continued, values first:

IC50 [1] [µM]	IC50 [2] [µM]	Compound
0.023	0.19	CC(=O)Nc1cc(-c2[nH]c3cccnc3c2-c2cccc3ccncc23)ccn1 [Example 19, N-{4-[3-(Isoquinolin-8-yl)-1H-pyrrolo[3,2-b]pyridin-2-yl]pyridin-2-yl}acetamide]
0.001	1.66	CCN1CCN(CC(=O)Nc2cc(-c3[nH]c4cc(Cl)cnc4c3-c3ccc(OC)nc3)ccn2)CC1 [Example 291, N-(4-(6-chloro-3-(6-methoxypyridin-3-yl)-1H-pyrrolo[3,2-b]pyridin-2-yl)pyridin-2-yl)-2-(4-ethylpiperazin-1-yl)acetamide]
0.001	7.6	CC(=O)Nc1cc(-c2[nH]c3c(CN4CCOCC4)ccnc3c2-c2cccc(C(F)F)n2)ccn1 [Example 140, N-(4-{3-[6-(Difluoromethyl)pyridin-2-yl]-7-(morpholin-4-ylmethyl)-1H-pyrrolo[3,2-b]pyridin-2-yl}pyridin-2-yl)acetamide]
0.535	> 15	CC(=O)Nc1cc(-c2[nH]c3cc(Cl)cnc3c2-c2ncccc2C)ccn1 [Example 259, N-(4-(6-Chloro-3-(3-methylpyridin-2-yl)-1H-pyrrolo[3,2-b]pyridin-2-yl)pyridin-2-yl)acetamide]
0.0007	0.548	CC(=O)Nc1cc(-c2[nH]c3cccnc3c2-c2nc(C(F)F)cs2)ccn1 [Example 200, N-(4-(3-(4-(Difluoromethyl)thiazol-2-yl)-1H-pyrrolo[3,2-b]pyridin-2-yl)pyridin-2-yl)acetamide]
0.001	> 15	COc1cnc2c(-c3cccc(C)n3)c(-c3ccnc(NC(=O)CN4CCN(CCO)CC4)c3)[nH]c2c1 [Example 122, 2-[4-(2-Hydroxyethyl)piperazin-1-yl]-N-{4-[6-methoxy-3-(6-methy 1pyridin-2-yl)-1H-pyrrolo[3,2-b]pyridin-2-yl]pyridin-2-yl}acetamide]
0.006	4.05	CNc1cc(-c2[nH]c3cc(Cl)cnc3c2-c2ccc(F)cn2)ccn1 [Example 82, 4-[6-Chloro-3-(5-fluoropyridin-2-yl)-1H-pyrrolo[3,2-b]pyridin-2-yl]-N-methylpyridin-2-amine]
0.0126	> 15	COc1ccc(-c2c(-c3ccnc(NC(C)=O)c3)[nH]c3cc(N4CCC(CO)CC4)cnc23)nc1 [Example 161, N-(4-(6-(4-(Hydroxymethyl)piperidin-l-yl)-3-(5-methoxypyridin-2-yl)-1H-pyrrolo[3,2-b]pyridin-2-yl)pyridin-2-yl)acetamide]
0.0009	0.218	COc1cnc2c(-c3ncc(C)s3)c(-c3ccnc(NC(C)=O)c3)[nH]c2c1 [Example 209, N-(4-(6-Methoxy-3-(5-methylthiazol-2-yl)-1H-pyrrolo[3,2-b]pyridin-2-yl)pyridin-2-yl)acetamide]
0.003	> 15	CC(=O)Nc1cc(-c2[nH]c3c(C4CCOCC4)ccnc3c2-c2cccc(C(F)F)n2)ccn1 [Example 135, N-(4-{3-[6-(Difluoromethyl)pyridin-2-yl]-7-(oxan-4-yl)-1H-pyrrolo[3,2-b]pyridin-2-yl}pyridin-2-yl)acetamide]
0.002	> 15	COc1ccc(-c2c(-c3ccnc(NC(C)=O)c3)[nH]c3cc(F)cnc23)nc1 [Example 39, N-{4-[6-Fluoro-3-(5-methoxypyridin-2-yl)-1H-pyrrolo[3,2-b]pyridin-2-yl]pyridin-2-yl}acetamide]
0.0049	1.04	CC(=O)Nc1cc(-c2[nH]c3cccnc3c2-c2csc(C)n2)ccn1 [Example 211, N-(4-(3-(2-Methylthiazol-4-yl)-1H-pyrrolo[3,2-b]pyridin-2-yl)pyridin-2-yl)acetamide]
0.058	> 15	CC(=O)Nc1cc(-c2[nH]c3c(C4CCN(C)CC4)ccnc3c2-c2cccc(C(F)F)n2)ccn1 [Example 137, N-(4-{3-[6-(Difluoromethyl)pyridin-2-yl]-7-(1-methylpiperidin-4-yl)-1H-pyrrolo[3,2-b]pyridin-2-yl}pyridin-2-yl)acetamide]
0.001	5.99	O=C(CN1CCN(CCO)CC1)Nc1cc(-c2[nH]c3cc(Cl)cnc3c2-c2ccc(F)cn2)ccn1 [Example 246, N-(4-(6-Chloro-3-(5-fluoropyridin-2-yl)-1H-pyrrolo[3,2-b]pyridin-2-yl)pyridin-2-yl)-2-(4-(2-hydroxyethyl)piperazin-1-yl)acetamide]
